The results in this text go back to US10975077B2 (Novira Therapeutics, Inc., priority 2016, dated 2021).

Bounds are passed on as bounds.

The subject of the assay is HBV (encapsidated HBV DNA, HepG2.2.15 cells). Briefly: HBV replication inhibition assay, BDNA assay in HepG2.2.15 cells. Type of assay: cell-based. The note with it: Hepatitis B virus, HepG2.2.15, Activity in BDNA-assay. The method in brief:
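Encapsidated HBV DNA in DNase-treated, proteinase K-lysed supernatant was measured by branched DNA after 6 days' compound exposure, refreshed on day 3, of HepG2.2.15 cells in 0.5% DMSO. Signals normalized to DMSO-treated wells; EC50 from nonlinear regression of inhibition against log concentration.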
On to `CN1CC(N2CCCCC2)Cn2nc3c(c2C1=O)CN(C(=O)Nc1ccc(F)c(Cl)c1)CC3` (centres unmarked) [Compound 055, N-(3-chloro-4-fluorophenyl)-10-methyl-11-oxo-8-(piperidin-1-yl)-1,3,4,7,8,9,10,11-octahydro-2H-pyrido[4′,3′:3,4]pyrazolo[1,5-a][1,4]diazepine-2-carboxamide], for which the EC50 was in the range of 100 to 500 nM.

As to `CN1CC(N2CCC(F)(F)CC2)Cn2nc3c(c2C1=O)CN(C(=O)Nc1ccc(F)c(Cl)c1)CC3` (centres unmarked) [Compound 056, N-(3-chloro-4-fluorophenyl)-8-(4,4-difluoropiperidin-1-yl)-10-methyl-11-oxo-1,3,4,7,8,9,10,11-octahydro-2H-pyrido[4′,3′:3,4]pyrazolo[1,5-a][1,4]diazepine-2-carboxamide], the EC50 lay within 100 to 500 nM.

As to `COC(=O)C1CCn2nc3c(c2C(=O)N1C)CN(C(=O)Nc1ccc(F)c(Cl)c1)CC3` (centres unmarked) [Compound 057, methyl 2-((3-chloro-4-fluorophenyl)carbamoyl)-10-methyl-11-oxo-1,3,4,7,8,9,10,11-octahydro-2H-pyrido[4′,3′:3,4]pyrazolo[1,5-a][1,4]diazepine-9-carboxylate], the EC50 is 100 to 500 nM.

Turning to `CN1C(=O)c2c3c(nn2CCC1C(=O)O)CCN(C(=O)Nc1ccc(F)c(Cl)c1)C3` (centres unmarked) [Compound 058, 2-((3-chloro-4-fluorophenyl)carbamoyl)-10-methyl-11-oxo-1,3,4,7,8,9,10,11-octahydro-2H-pyrido[4′,3′:3,4]pyrazolo[1,5-a][1,4]diazepine-9-carboxylic acid], the EC50 is > 1000 nM.

Consider `CN(C)C(=O)C1CCn2nc3c(c2C(=O)N1C)CN(C(=O)Nc1ccc(F)c(Cl)c1)CC3` (centres unmarked) [Compound 059, N2-(3-chloro-4-fluorophenyl)-N9,N9,10-trimethyl-11-oxo-1,3,4,7,8,9,10,11-octahydro-2H-pyrido[4′,3′:3,4]pyrazolo[1,5-a][1,4]diazepine-2,9-dicarboxamide], for which the 50% effective concentration (EC50) lay within 100 to 500 nM.

As to `CN1C(=O)c2c3c(nn2CCC1(C)CO)CCN(C(=O)Nc1ccc(F)c(Cl)c1)C3` (centres unmarked) [Compound 061, N-(3-chloro-4-fluorophenyl)-9-(hydroxymethyl)-9,10-dimethyl-11-oxo-1,3,4,7,8,9,10,11-octahydro-2H-pyrido[4′,3′:3,4]pyrazolo[1,5-a][1,4]diazepine-2-carboxamide], the EC50 lay in the range of 1 to 100 nM.

In the case of `CN1C(=O)c2c3c(nn2CCC1(C)C(=O)O)CCN(C(=O)Nc1ccc(F)c(Cl)c1)C3` (centres unmarked) [Compound 062, 2-((3-chloro-4-fluorophenyl)carbamoyl)-9,10-dimethyl-11-oxo-1,3,4,7,8,9,10,11-octahydro-2H-pyrido[4′,3′:3,4]pyrazolo[1,5-a][1,4]diazepine-9-carboxylic acid], the EC50 was > 1000 nM.

As for `CN1CC(CN2CCOCC2)Cn2nc3c(c2C1=O)CN(C(=O)Nc1ccc(F)c(Cl)c1)CC3` (centres unmarked) [Compound 063, N-(3-chloro-4-fluorophenyl)-10-methyl-8-(morpholinomethyl)-11-oxo-1,3,4,7,8,9,10,11-octahydro-2H-pyrido[4′,3′:3,4]pyrazolo[1,5-a][1,4]diazepine-2-carboxamide], the half-maximal effective concentration (EC50) was in the range of 1 to 100 nM.

As for `CN1CC(CN2CCCCC2)Cn2nc3c(c2C1=O)CN(C(=O)Nc1ccc(F)c(Cl)c1)CC3` (centres unmarked) [Compound 064, N-(3-chloro-4-fluorophenyl)-10-methyl-11-oxo-8-(piperidin-1-ylmethyl)-1,3,4,7,8,9,10,11-octahydro-2H-pyrido[4′,3′:3,4]pyrazolo[1,5-a][1,4]diazepine-2-carboxamide], the EC50 fell in the range of 100 to 500 nM.

For the compound `CN(C)CC1CN(C)C(=O)c2c3c(nn2C1)CCN(C(=O)Nc1ccc(F)c(Cl)c1)C3` (centres unmarked) [Compound 065], the EC50 was 100 to 500 nM.

As for `CN1CC(CN2CCC(F)(F)C2)Cn2nc3c(c2C1=O)CN(C(=O)Nc1ccc(F)c(Cl)c1)CC3` (centres unmarked) [Compound 066, N-(3-chloro-4-fluorophenyl)-8-((3,3-difluoropyrrolidin-1-yl)methyl)-10-methyl-11-oxo-1,3,4,7,8,9,10,11-octahydro-2H-pyrido[4′,3′:3,4]pyrazolo[1,5-a][1,4]diazepine-2-carboxamide], the EC50 was in the range of 1 to 100 nM.

With `CN1CC(CN2CCC(F)(F)C2)Cn2nc3c(c2C1=O)CN(C(=O)Nc1ccc(F)c(C#N)c1)CC3` (centres unmarked) [Compound 067, N-(3-cyano-4-fluorophenyl)-8-((3,3-difluoropyrrolidin-1-yl)methyl)-10-methyl-11-oxo-1,3,4,7,8,9,10,11-octahydro-2H-pyrido[4′,3′:3,4]pyrazolo[1,5-a][1,4]diazepine-2-carboxamide], the EC50 lay within 100 to 500 nM.

For `CN1CC(CN2CCC(F)(F)C2)Cn2nc3c(c2C1=O)CN(C(=O)Nc1ccc(F)c(C(F)(F)F)c1)CC3` (centres unmarked) [Compound 068, 8-((3,3-difluoropyrrolidin-1-yl)methyl)-N-(4-fluoro-3-(trifluoromethyl)phenyl)-10-methyl-11-oxo-1,3,4,7,8,9,10,11-octahydro-2H-pyrido[4′,3′:3,4]pyrazolo[1,5-a][1,4] diazepine-2-carboxamide], the concentration for a half-maximal effect (EC50) lay within 100 to 500 nM.

With `CN1CC(CN2CCCC2)Cn2nc3c(c2C1=O)CN(C(=O)Nc1ccc(F)c(Cl)c1)CC3` (centres unmarked) [Compound 069, N-(3-chloro-4-fluorophenyl)-10-methyl-11-oxo-8-(pyrrolidin-1-ylmethyl)-1,3,4,7,8,9,10,11-octahydro-2H-pyrido[4′,3′:3,4]pyrazolo[1,5-a][1,4]diazepine-2-carboxamide], the concentration for a half-maximal effect (EC50) lay in the range of 1 to 100 nM.

On to `CN1CC(CN)Cn2nc3c(c2C1=O)CN(C(=O)Nc1ccc(F)c(Cl)c1)CC3` (centres unmarked) [Compound 070, 8-(aminomethyl)-N-(3-chloro-4-fluorophenyl)-10-methyl-11-oxo-1,3,4,7,8,9,10,11-octahydro-2H-pyrido[4′,3′:3,4]pyrazolo[1,5-a][1,4]diazepine-2-carboxamide], for which the EC50 lay within 1 to 100 nM.

Consider `C[C@@H]1Cc2nn3c(c2CN1C(=O)Nc1cc(Cl)c(F)cc1Br)C(=O)N(CC(F)F)CCC3` [Compound 071, (R)—N-(2-bromo-5-chloro-4-fluorophenyl)-10-(2,2-difluoroethyl)-3-methyl-11-oxo-1,3,4,7,8,9,10,11-octahydro-2H-pyrido[4′,3′:3,4]pyrazolo[1,5-a][1,4]diazepine-2-carboxamide], for which the EC50 fell in the range of 1 to 100 nM.

`C[C@@H]1Cc2nn3c(c2CN1C(=O)Nc1ccc(F)c(Cl)c1)C(=O)N(CC(F)F)CCC3` [Compound 072, (3R)—N-(3-chloro-4-fluorophenyl)-10-(2,2-difluoroethyl)-3-methyl-11-oxo-1,3,4,7,8,9,10,11-octahydro-2H-pyrido[4′,3′:3,4]pyrazolo[1,5-a][1,4]diazepine-2-carboxamide]: the EC50 is 1 to 100 nM.

On to `C[C@@H]1Cc2nn3c(c2CN1C(=O)Nc1ccc(F)c(C(F)(F)F)c1)C(=O)N(CC(F)F)CCC3` [Compound 073, (R)-10-(2,2-difluoroethyl)-N-(4-fluoro-3-(trifluoromethyl)phenyl)-3-methyl-11-oxo-1,3,4,7,8,9,10,11-octahydro-2H-pyrido[4′,3′:3,4]pyrazolo[1,5-a][1,4]diazepine-2-carboxamide], for which the EC50 was 1 to 100 nM.

Turning to `C[C@@H]1Cc2nn3c(c2CN1C(=O)Nc1ccc(F)c(Br)c1)C(=O)N(CC(F)F)CCC3` [Compound 074, (R)—N-(3-bromo-4-fluorophenyl)-10-(2,2-difluoroethyl)-3-methyl-11-oxo-1,3,4,7,8,9,10,11-octahydro-2H-pyrido[4′,3′:3,4]pyrazolo[1,5-a][1,4]diazepine-2-carboxamide], the EC50 was in the range of 1 to 100 nM.

For `C[C@@H]1Cc2nn3c(c2CN1C(=O)Nc1ccnc(Br)c1F)C(=O)N(CC(F)F)CCC3` [Compound 075], the EC50 fell in the range of 1 to 100 nM.

`C[C@@H]1Cc2nn3c(c2CN1C(=O)Nc1ccc(F)c(C#N)c1)C(=O)N(CC(F)F)CCC3` [Compound 076, (R)—N-(3-cyano-4-fluorophenyl)-10-(2,2-difluoroethyl)-3-methyl-11-oxo-1,3,4,7,8,9,10,11-octahydro-2H-pyrido[4′,3′:3,4]pyrazolo[1,5-a][1,4]diazepine-2-carboxamide]: the EC50 fell in the range of 1 to 100 nM.

As to `Cc1cc(NC(=O)N2Cc3c(nn4c3C(=O)N(CC(F)F)CCC4)C[C@H]2C)ccc1F` [Compound 077, (R)-10-(2,2-difluoroethyl)-N-(4-fluoro-3-methylphenyl)-3-methyl-11-oxo-1,3,4,7,8,9,10,11-octahydro-2H-pyrido[4′,3′:3,4]pyrazolo[1,5-a][1,4]diazepine-2-carboxamide], the EC50 is 1 to 100 nM.

For `C[C@@H]1Cc2nn3c(c2CN1C(=O)Nc1cc(Cl)c(F)cc1F)C(=O)N(CC(F)F)CCC3` [Compound 078, (R)—N-(5-chloro-2,4-difluorophenyl)-10-(2,2-difluoroethyl)-3-methyl-11-oxo-1,3,4,7,8,9,10,11-octahydro-2H-pyrido[4′,3′:3,4]pyrazolo[1,5-a][1,4]diazepine-2-carboxamide], the concentration for a half-maximal effect (EC50) was 100 to 500 nM.

For `CN1CC(CO)(CC(F)F)Cn2nc3c(c2C1=O)CN(C(=O)Nc1ccc(F)c(Cl)c1)CC3` (centres unmarked) [Compound 091, N-(3-chloro-4-fluorophenyl)-8-(2,2-difluoroethyl)-8-(hydroxmethyl)-10-methyl-11-oxo-1,3,4,7,8,9,10,11-octahydro-2H-pyrido[4′,3′:3,4]pyrazolo[1,5-a][1,4]diazepine-2-carboxamide], the EC50 lay in the range of 100 to 500 nM.

Turning to `CN1CC(CN)Cn2nc3c(c2C1=O)CN(C(=O)Nc1ccc(F)c(C(F)(F)F)c1)CC3` (centres unmarked) [Compound 093, 8-(aminomethyl)-N-[4-fluoro-3-(trifluoromethyl)phenyl]-10-methyl-11-oxo-1,3,4,7,8,9-hexahydropyrido[2,3]pyrazolo[2,4-b][1,4]diazepine-2-carboxamide], the half-maximal effective concentration (EC50) lay within 100 to 500 nM.

For the compound `CNCC1CN(C)C(=O)c2c3c(nn2C1)CCN(C(=O)Nc1ccc(F)c(C(F)(F)F)c1)C3` (centres unmarked) [Compound 094, N-[4-fluoro-3-(trifluoromethyl)phenyl]-10-methyl-8-(methylaminomethyl)-11-oxo-1,3,4,7,8,9-hexahydropyrido[2,3]pyrazolo[2,4-b][1,4]diazepine-2-carboxamide], the EC50 fell in the range of 100 to 500 nM.
